* marks the point of attachment. Acm = CC(=O)NC*
How the values were obtained:
[1] = system: plasmid nucleic acid pRSVLuc; assay: Surface plasmon resonance (BIAcore) binding kinetics of peptides/conjugates to immobilized biotinylated plasmid DNA; conditions: for ka: apparent rate constant for association; for ka / kd: SPR, PBS, 25° C.; for kd: apparent rate constant for dissociation
Protocol: In the examples described below, SPR was detected using the BIAcore system. This machine contained an SPR detector and an integrated microfluidic cartridge which is engineered such that an analyte solution (cationic peptide) is continuously passed over the sensor chip. The sensor chip consists of a glass plate coated with a thin film of gold covered in a layer of carboyxymethyl dextran. The chip used has a dextran layer to which streptavidin is covalently attached. The chip is prepared for use by adding biotinylated nucleic acid which will be bound to the chip via the streptavidin-biotin interaction, and the same chip is used in a series of experiments.
As material binds to the immobilized nucleic acid molecule on the sensor chip, the SPR angle of plane polarized light shining on the surface of the chip is monitored by the detector. Changes in angle are defined as resonance units (RU) and data are collected every second. Background effects are detected and automatically subtracted by the use of a control flow cell in line with the nucleic acid flow cell.
A typical sensorgram has three phases: an association phase, an equilibrium phase and a dissociation phase (see FIG. 1). The rise in signal occurs as more peptide binds to the immobilized plasmid DNA until equilibrium conditions are reached. The height of the peak is directly proportional to the mass of peptide bound. If the flow continues with buffer containing no peptide, peptide begins to dissociate from the complex and the resonance signal is reduced. The sensorgram can be used to compute apparent rate constants for each of the three individual processes.
(1) dC/dt=ka [PF ] [Pmax -PB ]-kd [PB ]
Measurement of Binding Kinetics by Surface Plasmon Resonance
A 6 kilobase (kb) plasmid DNA (pRSVLuc) was biotinylated using photoactivatable biotin (Pierce and Warriner) as per manufacturer's instructions.
A sensor chip with immobilized streptavidin (SA5) was conditioned following manufacturer's instructions, i.e., three one-minute injections of 1 M NaCl: 50 mM NaOH followed by one 1 min injection of 0.5% SDS. Flow rate on the BlAcore sensing device was 20 μl per min, running buffer was phosphate buffered saline (PBS). Flow path was flow cells 1 and 2.
The flow path was switched to flow cell 2 only and the flow rate was reduced to 10 μl per minute. Biotinylated plasmid at a concentration of […] in 0.5M NaCl was injected for 3 mins.
Phosphate buffered saline was used as running buffer at a flow rate of 20 μl per minute. The flow path was over flow cells 1 and 2. Flow cell 1 was used as a reference cell. The experiments were carried out at a temperature of 25° C.
Peptides were injected at various concentrations for three minutes. The injection was followed by a 5 min dissociation phase before the injection port was washed. The sensor chip was regenerated by the injection of 2M NaCl for 1 min. If necessary, this injection was repeated to bring the response back down to baseline before the next peptide sample was injected.
The data was analysed using the methods described in the handbook (BIAevaluation 2.1. Software Handbook, Pharmacia Biosensor AB, Uppsala, Sweden).
Essentially the plots were evaluated as follows: The dissociation constant, kd, was determined first. A curve or family of curves (same NBC at different concentrations) were plotted as response (Y) versus time as Ln (Yo/Y) versus time. In the area where the Ln(Yo/Y) curve was linear, a fit of the default dissociation model [AB]=[A]+[B] was made. The association constant, ka, was then calculated by fitting the related association model on that part of the association curve where a plot of In(abs(dY/dt) versus time was linear. KD were approximated by dividing the calculated kd with the calculated ka.

[2] = system: KLN-205 squamous epithelial syngenic tumour cells; assay: In vivo transfection of KLN-205 tumours in DBA2 mice by local injection of peptide/plasmid complexes (nitroreductase immunostaining); parameters: species or system mouse; conditions: 0.5 μg peptide/μg DNA, intratumoural injection
Protocol: A representative in via cell transfection system is transfection of tumor cells using a murine carcinoma model.
The murine carcinoma model DBA2 containing the squamous epithelial syngenic tumour cell line KLN-205 was prepared as described in the Examples. A transfecting complex was prepared using a solution of plasmid DNA encoding a reporter gene or, for example, nitroreductase and a selected NBC peptide 0.5 μg peptide/μg DNA, as described herein. Where desired, a conjugate peptide was added to the transfecting complex, at a concentration of 0.1-0.3 μg […] peptide/μg DNA.
Transfection efficiency may be determined in a number of ways, including assessing the effect of the reporter gene on the target tissue, or by quantitating the gene product. Below, tissues samples were obtained and nitroreductase gene expression was ascertained via staining of tissue sections.
The ability to transfect tumor cells in vivo in mice was tested using plasmid nucleic acid carrying the nitroreductase reporter gene condensed on each of the following peptides: NBC15, NBC8, NBC9, NBC11, NBC7.
DBA2--male mice, aged 5-10 weeks were injected subcutaneously in each flank with a squamous epithelial syngenic tumour cell line KLN-205. The cell line was grown up in 175 ml T-flasks in standard EMEM medium containing 10% foetal calf serum. When the cells reached a density of 4×10^6 they were suspended by a standard trypsinization technique, washed in PBS and diluted to a final concentration of […].
The anaesthetic was Enflurane (Alynane; Anaquest, Ltd., Windlesham, Surrey UK): Ketamine (10% Ketaset, Willows Francis Veterinary, Cramley, West Sussex, UK); Rompun (2%, Bayer UK, Ltd., Suffolk, UK). For 10 ml anaesthetic mixture: 8.5 ml PBS; 1 ml Ketamine; 0.5 ml Rompun. Each animal was injected intra-peritoneally with 200 μl/animal using 1 ml syringe with 25 gauge needle. Once anaesthetized, the tumour is manipulated between the fingers lifting it slightly away from the animal's body and at the same time apply minimum pressure to the tumour. Using a 0.5 ml insulin needle the formulated delivery vehicle (a plasmid containing the E. coli nitroreductase gene condensed on a peptide at a ratio of 0.5 μg peptide/μg DNA) to be injected is taken up and the tumour is injected horizontally trying to avoid any visible blood vessels and necrotic or abnormal tissue. Daily monitoring is continued until the experiment is terminated.
7μ sections of frozen tumour tissue are prepared using standard methods and a Cryostat and air dried. Sections are fixed with freshly prepared 4% PFA/PBS for 30 mins at room temperature and then washed twice with 0.01% Tween-20/PBS 5 mins each wash. Sections are then immersed in 0.25% hydrogen peroxide/PBS, at room temperature (20C.) for 30 mins, and then washed three times in 0.01% Tween 20/PBS for 5 mins each wash. Sections are then permeabilised by treatment with ice cold 0.1 % TRITON X-100 for 5 mins, followed by a further two washes in 0.01% Tween-20/PBS 5mins each wash. The sections are then blocked with 5% NGS/PBS 60mins at room temperature in a wetbox. After decanting the blocking solution, 0.5 ml diluted antiserum/slide (1:400 in 2.5% NGS) is added and the sections incubated for 60 mins at room temperature. Slides are then washed three times in 0.01% Tween-20/PBS 5 mins each wash. Secondary antibody (0.5 ml) from ABC Elite Vector stain kit is added as follows and incubated 30 mins at room temperature in a wetbox.
The tumour is a murine syngenic squamous carcinoma produced by subcutaneous injection of KLN205 cells. When the tumours were approximately 4 mm in diameter they were injected with 20 μl of plasmid DNA formulated with the NBC15 peptide. After 48 h the tumours were excised and sectioned by standard histological techniques and immunostained for expression of the transgene (E. coli nitroreductase). […] In this case the tumours were injected with the same plasmid formulated in 0.5 μg NBC9 peptide/μg DNA.

Jurkat cell line = assay: In vitro transfection with pRSVLuc (luciferase) condensed on peptides; type: cell-based; conditions: peptide 2 μg/μg plasmid DNA
Protocol: After incubation the cells are lysed and are assayed for gene expression. In the case of the luciferase reporter gene, luciferin and ATP are added to lysed cells and the light emitted is measured with a luminometer (see deWet et al., supra).
Cell lines such as Jurkat and K562 grow in suspension and can be transfected and the level of transgene expression (luciferase activity) determined b) the following method. Cells are harvested on the day of assay by centrifugation at 1200 rpm for 5 mins at room temperature. The cell pellet is resuspended in phosphate buffered saline and re-centrifuged. This operation is performed twice. […] The cells are then aliquoted into tubes and 0.75 ml of RPMI medium added, followed by 0.04-0.08 ml of 100 mM Chloroquine and finally 0.25 ml of DNA-complex solution. The transfection is then allowed to proceed by incubating the cells at 37° C. for 4 h. After this time the cells are harvested by centrifugation at 2000 rpm. The cells are then suspended in 1 ml of RPMI medium and re-centrifuged. Finally the cells are suspended in 0.5 ml RPMI medium containing 10% foetal bovine serum. Each 0.5 ml of transfected cell suspension is transferred to a well of a 12 well plastic culture plate containing 1.5 ml of RPMI 10% FBS. The original transfection tube is rinsed with a further 1 ml of medium and the wash transferred to the culture dish making a final volume of 3 ml. The culture plate is then incubated at 37° C. for 24-90 h in an atmosphere of 5% CO2. The contents of each well in the culture dish are transferred to centrifuge tubes and the cells collected by centrifugation at 13000 rpm. The pellet is resuspended in 0.12 ml of Lysis Buffer (100 mM sodium phosphate, pH 7.8; 8 mM magnesium chloride, 1 mM EDTA; 1% Triton X-100 and 15% glycerol) and agitated with a pipette. The lysate is centrifuged at 13000 rpm for 1 min and the supernatant collected. 80 μl of the supernatant are transferred to a luminometer tube. The luciferase activity is then assayed using a Berthold Lumat L9501 luminometer. The assay buffer used is Lysis Buffer containing 10 mM Luciferin and 100 mM ATP. Light produced by the luciferase is integrated over 4s and is described as relative light units (RLU). The data are converted to RLU/ml of lysate, RLU/cell or RLU/mg protein (protein concentration of the lysate having been determined in this case by the BioRAD Lowry assay.
In order to compare the relative efficiency of transfection of complexes composed of different NBC condensation peptides or poly-L-lysine, pRSVLuc DNA at a concentration of 100 μg/ml was condensed using peptide at a ratio of 2 μg/μg plasmid DNA as described herein with the following deviation: prior to addition to the cells (Jurkat cell line) the complexes were diluted to 20 μg/ml with 10% PEG 10 000; 37 mM sodium chloride; 25 mM sodium phosphate, pH 7.4. The cells were assayed for luciferase after 24 h.

Substance	ka [1] [M⁻¹ s⁻¹]	kd [1] [s⁻¹]	ranking by numbers of transfected tumor cells (most to least efficient) [2]	number of transfected tumor cells / level of transfection ([2]; 48 h, nitroreductase immunostaining)	association reaction ([1]; shape of association kinetics)	transfection compared with polydisperse poly-L-lysine (Jurkat cell line; luciferase)	rank in order of relative transfection efficiency (most to least efficient) (Jurkat cell line; luciferase after 24 h, FIG. 7)
NH2-TKKSPKKAKKPAAKKSPKKAKKPAAKKSPKKAKKPAAC(Acm)-COOH (H-TKKSPKKAKKPAAKKSPKKAKKPAAKKSPKKAKKPAAC(Acm)-OH; SMILES CC(=O)NCSC[C@H](NC(=O)[C@H](C)NC(=O)[C@H](C)NC(=O)[C@@H]1CCCN1C(=O)[C@H](CCCCN)NC(=O)[C@H](CCCCN)NC(=O)[C@H](C)NC(=O)[C@H](CCCCN)NC(=O)[C@H](CCCCN)NC(=O)[C@@H]1CCCN1C(=O)[C@H](CO)NC(=O)[C@H](CCCCN)NC(=O)[C@H](CCCCN)NC(=O)[C@H](C)NC(=O)[C@H](C)NC(=O)[C@@H]1CCCN1C(=O)[C@H](CCCCN)NC(=O)[C@H](CCCCN)NC(=O)[C@H](C)NC(=O)[C@H](CCCCN)NC(=O)[C@H](CCCCN)NC(=O)[C@@H]1CCCN1C(=O)[C@H](CO)NC(=O)[C@H](CCCCN)NC(=O)[C@H](CCCCN)NC(=O)[C@H](C)NC(=O)[C@H](C)NC(=O)[C@@H]1CCCN1C(=O)[C@H](CCCCN)NC(=O)[C@H](CCCCN)NC(=O)[C@H](C)NC(=O)[C@H](CCCCN)NC(=O)[C@H](CCCCN)NC(=O)[C@@H]1CCCN1C(=O)[C@H](CO)NC(=O)[C@H](CCCCN)NC(=O)[C@H](CCCCN)NC(=O)[C@@H](N)[C@@H](C)O)C(=O)O) [NBC9]	97800	0.00293	NBC15>NBC8, NBC9, NBC11>NBC7>>>poly-lysine	Although transfection is evident the level of transfection is noticeably lower			
H-TRPAWRRAKRRAARRCGVSARRAARRAWRRE-OH [NBC7]	3670	0.000133	NBC15>NBC8, NBC9, NBC11>NBC7>>>poly-lysine		clear biphasic kinetics		
H-TKKKKKKKKKKKKKKKKKKC-OH [NBC14]	211000	0.00075				significantly better transfection agents than the polydisperse poly-L-lysine	
NH2-KKSPKKAKKPAAKKSPKKAKKPAAKKSPKKAKKPAYC(Acm)-COOH (H-KKSPKKAKKPAAKKSPKKAKKPAAKKSPKKAKKPAYC(Acm)-OH; SMILES CC(=O)NCSC[C@H](NC(=O)[C@H](Cc1ccc(O)cc1)NC(=O)[C@H](C)NC(=O)[C@@H]1CCCN1C(=O)[C@H](CCCCN)NC(=O)[C@H](CCCCN)NC(=O)[C@H](C)NC(=O)[C@H](CCCCN)NC(=O)[C@H](CCCCN)NC(=O)[C@@H]1CCCN1C(=O)[C@H](CO)NC(=O)[C@H](CCCCN)NC(=O)[C@H](CCCCN)NC(=O)[C@H](C)NC(=O)[C@H](C)NC(=O)[C@@H]1CCCN1C(=O)[C@H](CCCCN)NC(=O)[C@H](CCCCN)NC(=O)[C@H](C)NC(=O)[C@H](CCCCN)NC(=O)[C@H](CCCCN)NC(=O)[C@@H]1CCCN1C(=O)[C@H](CO)NC(=O)[C@H](CCCCN)NC(=O)[C@H](CCCCN)NC(=O)[C@H](C)NC(=O)[C@H](C)NC(=O)[C@@H]1CCCN1C(=O)[C@H](CCCCN)NC(=O)[C@H](CCCCN)NC(=O)[C@H](C)NC(=O)[C@H](CCCCN)NC(=O)[C@H](CCCCN)NC(=O)[C@@H]1CCCN1C(=O)[C@H](CO)NC(=O)[C@H](CCCCN)NC(=O)[C@@H](N)CCCCN)C(=O)O) [NBC13]							NBC11>NBC13>NBC8>>NBC15>>>polylysine

— patent publication US6218112A, “Optimization of gene delivery and gene delivery system” (Cobra Therapeutics Limited, priority 1997, dated 2001)
